ChEMBL document CHEMBL4342507, “Targeting YAP Degradation by a Novel 1,2,4-Oxadiazole Derivative via Restoration of the Function of the Hippo Pathway” (ACS Med Chem Lett, 2020)
Activity calls are given as the source filed them. The calls are words filed in the database; no cut-off is given here.

What was measured:
[1] = target: T1, Serine/threonine-protein kinase LATS1 (Homo sapiens) (UniProt O95835); test: Activation of LATS1 in human MDA-MB-231 cells assessed as increase in phosphorylation at Thr1079 residue measured after 24 hrs by Western blot analysis; assay type: cell-based
T1 sequence (whole entry): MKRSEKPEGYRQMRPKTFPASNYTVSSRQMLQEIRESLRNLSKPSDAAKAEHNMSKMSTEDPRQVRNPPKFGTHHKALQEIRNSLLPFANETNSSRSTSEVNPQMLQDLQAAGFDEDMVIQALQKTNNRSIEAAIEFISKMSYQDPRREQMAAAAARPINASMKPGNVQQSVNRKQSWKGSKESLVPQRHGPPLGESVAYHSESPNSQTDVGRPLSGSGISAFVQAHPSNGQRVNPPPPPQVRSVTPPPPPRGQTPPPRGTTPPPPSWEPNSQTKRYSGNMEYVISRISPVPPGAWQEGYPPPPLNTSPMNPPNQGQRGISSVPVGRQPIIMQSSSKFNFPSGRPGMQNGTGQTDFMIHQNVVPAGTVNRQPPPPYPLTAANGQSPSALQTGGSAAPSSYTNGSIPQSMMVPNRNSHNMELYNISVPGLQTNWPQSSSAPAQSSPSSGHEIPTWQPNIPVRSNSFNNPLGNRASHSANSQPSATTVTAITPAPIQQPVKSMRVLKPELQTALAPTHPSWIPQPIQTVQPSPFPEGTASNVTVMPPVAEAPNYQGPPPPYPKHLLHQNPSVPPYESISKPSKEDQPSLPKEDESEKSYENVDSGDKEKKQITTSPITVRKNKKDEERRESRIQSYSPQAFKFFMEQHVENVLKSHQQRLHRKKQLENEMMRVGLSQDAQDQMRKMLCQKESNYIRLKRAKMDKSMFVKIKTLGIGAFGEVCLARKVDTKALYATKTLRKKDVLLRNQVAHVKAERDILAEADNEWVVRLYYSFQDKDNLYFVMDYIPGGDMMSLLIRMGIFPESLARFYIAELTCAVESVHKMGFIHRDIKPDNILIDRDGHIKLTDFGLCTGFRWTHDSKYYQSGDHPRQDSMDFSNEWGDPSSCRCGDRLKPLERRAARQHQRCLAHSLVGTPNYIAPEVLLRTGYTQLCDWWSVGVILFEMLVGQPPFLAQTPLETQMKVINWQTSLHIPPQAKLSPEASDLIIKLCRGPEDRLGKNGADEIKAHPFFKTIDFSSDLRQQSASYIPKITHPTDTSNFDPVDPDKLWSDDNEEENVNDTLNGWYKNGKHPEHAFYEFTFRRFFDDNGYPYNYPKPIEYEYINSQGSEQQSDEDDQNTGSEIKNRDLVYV

[2] = target: Hepatocyte growth factor receptor (Homo sapiens) (UniProt P08581); test: Induction of c-MET degradation in human MDA-MB-231 cells assessed as suppression of c-MET expression at 0.1 to 0.8 uM by Western blot analysis; assay type: cell-based
Chain of Hepatocyte growth factor receptor (Homo sapiens) (P08581 whole entry): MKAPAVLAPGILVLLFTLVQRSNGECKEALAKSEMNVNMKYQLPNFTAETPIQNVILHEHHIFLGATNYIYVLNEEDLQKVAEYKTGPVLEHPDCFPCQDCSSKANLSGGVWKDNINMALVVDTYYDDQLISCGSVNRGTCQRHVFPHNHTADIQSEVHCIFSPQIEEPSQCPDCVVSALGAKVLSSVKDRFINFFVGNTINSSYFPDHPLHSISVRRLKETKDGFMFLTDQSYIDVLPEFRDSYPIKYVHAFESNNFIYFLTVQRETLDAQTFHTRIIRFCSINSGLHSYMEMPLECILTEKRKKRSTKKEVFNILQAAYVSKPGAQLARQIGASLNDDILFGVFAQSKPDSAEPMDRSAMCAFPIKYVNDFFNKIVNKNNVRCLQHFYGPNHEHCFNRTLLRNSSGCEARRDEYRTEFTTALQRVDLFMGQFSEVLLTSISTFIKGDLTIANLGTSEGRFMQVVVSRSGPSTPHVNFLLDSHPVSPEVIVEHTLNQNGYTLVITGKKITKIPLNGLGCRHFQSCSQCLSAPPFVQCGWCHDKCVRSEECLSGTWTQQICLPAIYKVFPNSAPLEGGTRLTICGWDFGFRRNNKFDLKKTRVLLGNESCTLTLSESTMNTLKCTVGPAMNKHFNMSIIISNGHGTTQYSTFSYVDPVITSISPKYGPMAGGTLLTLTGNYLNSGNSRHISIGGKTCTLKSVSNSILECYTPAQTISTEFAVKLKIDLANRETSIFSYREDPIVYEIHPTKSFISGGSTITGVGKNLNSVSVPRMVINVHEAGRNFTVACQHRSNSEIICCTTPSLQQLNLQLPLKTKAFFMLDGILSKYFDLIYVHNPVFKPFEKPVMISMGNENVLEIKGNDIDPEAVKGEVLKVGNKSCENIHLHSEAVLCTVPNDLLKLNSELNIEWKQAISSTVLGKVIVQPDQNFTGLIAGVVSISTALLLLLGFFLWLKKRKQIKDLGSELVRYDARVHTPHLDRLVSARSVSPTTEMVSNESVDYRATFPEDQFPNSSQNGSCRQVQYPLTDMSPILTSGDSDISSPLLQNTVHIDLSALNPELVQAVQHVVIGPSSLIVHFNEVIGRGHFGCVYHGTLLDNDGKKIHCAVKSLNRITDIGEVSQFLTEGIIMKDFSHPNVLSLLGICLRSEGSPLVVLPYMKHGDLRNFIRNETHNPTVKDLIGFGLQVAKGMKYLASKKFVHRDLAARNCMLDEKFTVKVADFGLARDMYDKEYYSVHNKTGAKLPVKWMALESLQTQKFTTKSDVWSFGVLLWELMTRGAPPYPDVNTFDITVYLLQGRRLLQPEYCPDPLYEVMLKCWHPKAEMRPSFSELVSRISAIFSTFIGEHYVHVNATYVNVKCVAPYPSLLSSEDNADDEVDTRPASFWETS

[3] = target: T1, Serine/threonine-protein kinase LATS1 (Homo sapiens); test: Activation of LATS1 in human PC3 cells assessed as increase in phosphorylation at Ser909 residue measured after 24 hrs by Western blot analysis; assay type: cell-based
[4] = system: MDA-MB-231; test: Downregulation of TAZ protein expression in human MDA-MB-231 cells at 0.25 to 1.5 uM measured after 24 to 48 hrs by immunoblotting analysis; assay type: functional, cell-based
[5] = target: T1, Serine/threonine-protein kinase LATS1 (Homo sapiens); test: Activation of LATS1 in human PC9 cells assessed as induction of YAP degradation by measuring suppression of YAP protein expression at 0.25 to 1.5 uM measured after 12 to 24 hrs by immunoblotting analysis; assay type: cell-based
[6] = target: T1, Serine/threonine-protein kinase LATS1 (Homo sapiens); test: Activation of LATS1 in human […] cells assessed as increase in YAP phosphorylation at Ser397 at 0.25 to 1.5 uM measured after 12 to 24 hrs by immunoblotting analysis; assay type: cell-based
[7] = system: MDA-MB-231; test: Cytotoxicity against human MDA-MB-231 cells assessed as reduction in cell viability at 0.2 to 1.2 uM by MTT assay; assay type: functional, cell-based; details: TDE = time-dependent effect
[8] = system: PC-9; test: Cytotoxicity against human PC9 cells assessed as reduction in cell viability at 0.2 to 1.2 uM by MTT assay; assay type: functional, cell-based; details: TDE = time-dependent effect
[9] = target: T1, Serine/threonine-protein kinase LATS1 (Homo sapiens); test: Activation of LATS1 in human MDA-MB-231 cells assessed as increase in YAP phosphorylation at Ser397 at 0.25 to 1.5 uM measured after 24 to 48 hrs by immunoblotting analysis; assay type: cell-based
[10] = Acute toxicity in athymic Nude-Foxn1nu BALB/c mouse xenografted with human MDA-MB-231 cells assessed as effect on serum total bilirubin level at 200 mg/kg, po administered once daily via gavage for 14 days; assay type: organism-based; details: in vivo, 336 h
[11] = system: PC-3; test: Effect on MST2 expression in human PC3 cells at 0.25 to 1.5 uM measured after 24 hrs by Western blot analysis; assay type: functional, cell-based
[12] = target: T1, Serine/threonine-protein kinase LATS1 (Homo sapiens); test: Activation of LATS1 in human MDA-MB-231 cells assessed as induction of YAP degradation by measuring suppression of YAP protein expression at 0.25 to 1.5 uM measured after 12 to 24 hrs by immunoblotting analysis; assay type: cell-based
[13] = Acute toxicity in athymic Nude-Foxn1nu BALB/c mouse xenografted with human MDA-MB-231 cells assessed as effect on serum total cholesterol level level at 200 mg/kg, po administered once daily via gavage for 14 days; assay type: organism-based; details: in vivo, 336 h
[14] = target: Serine/threonine-protein kinase 3/4 (Homo sapiens) (UniProt Q13043+Q13188); test: Activation of MST1/2 in human MDA-MB-231 cells assessed as effect on phosphorylation at T183/T180 residues at 0.25 to 1.5 uM measured after 24 hrs by Western blot analysis; assay type: cell-based
Chain of Serine/threonine-protein kinase 3/4 (Homo sapiens) (Q13043 whole entry, looked up): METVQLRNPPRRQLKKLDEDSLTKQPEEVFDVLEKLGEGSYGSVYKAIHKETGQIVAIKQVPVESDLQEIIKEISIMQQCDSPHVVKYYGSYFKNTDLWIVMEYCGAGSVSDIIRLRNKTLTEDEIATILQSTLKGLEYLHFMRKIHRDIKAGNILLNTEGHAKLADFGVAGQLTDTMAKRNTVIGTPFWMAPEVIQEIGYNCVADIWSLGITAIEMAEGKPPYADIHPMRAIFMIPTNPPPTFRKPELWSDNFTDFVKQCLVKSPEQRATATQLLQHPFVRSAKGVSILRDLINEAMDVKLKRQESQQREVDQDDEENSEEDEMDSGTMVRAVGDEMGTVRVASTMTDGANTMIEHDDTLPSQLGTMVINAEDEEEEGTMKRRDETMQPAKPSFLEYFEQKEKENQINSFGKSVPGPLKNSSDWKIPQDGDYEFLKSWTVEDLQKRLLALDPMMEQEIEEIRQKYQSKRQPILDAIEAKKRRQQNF
Chain of Serine/threonine-protein kinase 3/4 (Homo sapiens) (Q13188 whole entry, looked up): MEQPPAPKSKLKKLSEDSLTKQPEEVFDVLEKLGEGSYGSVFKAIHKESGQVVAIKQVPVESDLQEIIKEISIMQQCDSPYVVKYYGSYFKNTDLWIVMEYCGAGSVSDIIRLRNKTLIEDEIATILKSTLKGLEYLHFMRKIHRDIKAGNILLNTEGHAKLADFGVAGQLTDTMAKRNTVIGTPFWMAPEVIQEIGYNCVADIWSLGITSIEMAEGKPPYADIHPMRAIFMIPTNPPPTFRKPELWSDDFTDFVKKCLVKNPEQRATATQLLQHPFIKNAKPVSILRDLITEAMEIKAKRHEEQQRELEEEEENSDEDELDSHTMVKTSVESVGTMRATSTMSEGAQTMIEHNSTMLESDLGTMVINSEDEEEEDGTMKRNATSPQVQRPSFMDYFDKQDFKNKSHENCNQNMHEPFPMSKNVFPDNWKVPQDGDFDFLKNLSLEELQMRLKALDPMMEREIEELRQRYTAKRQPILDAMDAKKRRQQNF

[15] = Acute toxicity in athymic Nude-Foxn1nu BALB/c mouse xenografted with human MDA-MB-231 cells assessed as effect on serum creatinine level at 200 mg/kg, po administered once daily via gavage for 14 days; assay type: organism-based; details: in vivo, 336 h
[16] = target: T1, Serine/threonine-protein kinase LATS1 (Homo sapiens); test: Activation of LATS1 in human PC3 cells assessed as induction of YAP degradation by measuring suppression of YAP protein expression at 0.25 to 1.5 uM measured after 12 to 24 hrs by immunoblotting analysis; assay type: cell-based
[17] = Acute toxicity in athymic Nude-Foxn1nu BALB/c mouse xenografted with human MDA-MB-231 cells assessed as effect on body weight at 200 mg/kg, po administered once daily via gavage for 40 days and measured twice a week during treatment period; assay type: organism-based; details: in vivo, 960 h
[18] = system: SUM-159-PT; test: Effect on MOB expression in human SUM159 cells at 0.25 to 1.5 uM measured after 12 hrs by Western blot analysis; assay type: functional, cell-based
[19] = system: SUM-159-PT; test: Effect on MST2 expression in human SUM159 cells at 0.25 to 1.5 uM measured after 12 hrs by Western blot analysis; assay type: functional, cell-based
[20] = target: T1, Serine/threonine-protein kinase LATS1 (Homo sapiens); test: Activation of LATS1 in human SUM159 cells assessed as increase in phosphorylation at Ser909 residue measured after 12 hrs by Western blot analysis; assay type: cell-based
[21] = system: MDA-MB-231; test: Effect on MST1 expression in human MDA-MB-231 cells at 0.25 to 1.5 uM measured after 24 hrs by Western blot analysis; assay type: functional, cell-based

CC(=O)Nc1ccc(NC(=O)Nc2cccc(-c3nc(-c4ccc(NC(=O)c5cccnc5)cc4Cl)no3)c2)cc1C(F)(F)F
Activity [1]: Dose-dependent effect
Activity [2]: inactive
Activity [3]: Dose-dependent effect
inhibition [4]: Active
Activity [5]: Active
Activity [6]: Active
Activity [7]: Tde
Activity [8]: Tde
Activity [9]: inactive
Activity [10]: Non-Toxic
Activity [11]: inactive
Activity [12]: Active
Activity [13]: Non-Toxic
Activity [14]: inactive
Activity [15]: Non-Toxic
Activity [16]: Active
Activity [17]: Non-Toxic
Activity [18]: inactive
Activity [19]: inactive
Activity [20]: Dose-dependent effect
Activity [21]: inactive
